One assay has as its target T1, Notch1 (Homo sapiens, UniProt P46531).
T1 construct: pLV[Tet]-Puro-TRE3G>Notch1-ICD; expressed in transfected cells; host or cells: 293A cells
The experiment in a line: Notch1 Reporter Assay (CSL-responsive luciferase, doxycycline-induced Notch-ICD in 293A cells). It is filed as cell-based. The note with it: 25 ng/mL Dox, 24 h, luciferase normalized to cell viability. As for the experimental part: 293A cells expressing 1) pCMV-Tet-On 3G, 2) pLV[Tet]-Puro-TRE3G>Notch1-ICD, 3) pLV[Tet]-Puro-TRE3G>Notch2-ICD, 4) pLV[Tet]-Puro-TRE3G>Notch3-ICD, and 5) pCSL-RElement-Luc were used. When Doxycycline is added, the Tet-ON gene activates expression of hNotch1ICD, which together with endogenous NTC components binds to CSL responsive elements (pCSL-RElement-Luc) and expresses luciferase. 1×10^4 cells are plated in 100 μL (96-well format). 24 h later, compounds (10 mM stock in DMSO) are diluted in DMSO to 200×, then added (5 ul into 1 mL) to cell culture media containing 50 ng/mL Dox. This is then added 1:1 to cells. Final DMSO=0.25%, Dox=25 ng/mL. After 24 h, media is discarded, and cells are lysed in passive lysis buffer (Promega). Cells are rocked at room temperature for 15 min and then lysate is divided for luciferase assay (Luciferase Assay System, Promega) and cell viability (CellTiter Glo 2.0, Promega). Raw luciferase is normalized to cell viability, and then scaled to DMSO wells. Results are analyzed and IC50's are determined in GraphPad by nonlinear regression curve fitting (4 parameter) of dose response curves.

The subject of assay [1] is OE33 Esophageal Adenocarcinoma cell line. The experiment in a line: OE33 Colony Formation Assay. It is filed as cell-based. The note with it: Homo sapiens, 200 cells/well, compound every 48 hours for 7 days, CellTiter-Glo. As for the experimental part:
OE33 Colony Formation Assay:
The OE33 Esophageal Adenocarcinoma cell line was cultured and plated into 96-well tissue culture plates under sparse conditions (200 cells/well). Test compounds were serially diluted in DMSO and then into culture media (final DMSO concentration=0.1%). Compound/media was then added to cells every 48 hours for a total of 7 days. Clonogenic growth was assessed using the CellTiter-Glo reagent, according to manufacturer (Promega) specifications. Percent inhibition was calculated as the percent of luminescence normalized to control (0.1% DMSO) wells. Nonlinear regression curve fitting was performed using GraphPad Prism software to determine EC50's.
Background: Cellular ATP, detected with luciferase, serves as a proxy for viable cell number.

Where a name gives a salt, the structure may show the parent alone.

For orientation: IC50 means the concentration that gives 50% inhibition. Higher therefore signals lower potency. In general, EC50 refers to the concentration needed to bring the measured effect to its halfway point. The low end stands for an effect from little substance, the high end for a need for much substance.

T1 sequence (P46531 1754-2555 limits assumed): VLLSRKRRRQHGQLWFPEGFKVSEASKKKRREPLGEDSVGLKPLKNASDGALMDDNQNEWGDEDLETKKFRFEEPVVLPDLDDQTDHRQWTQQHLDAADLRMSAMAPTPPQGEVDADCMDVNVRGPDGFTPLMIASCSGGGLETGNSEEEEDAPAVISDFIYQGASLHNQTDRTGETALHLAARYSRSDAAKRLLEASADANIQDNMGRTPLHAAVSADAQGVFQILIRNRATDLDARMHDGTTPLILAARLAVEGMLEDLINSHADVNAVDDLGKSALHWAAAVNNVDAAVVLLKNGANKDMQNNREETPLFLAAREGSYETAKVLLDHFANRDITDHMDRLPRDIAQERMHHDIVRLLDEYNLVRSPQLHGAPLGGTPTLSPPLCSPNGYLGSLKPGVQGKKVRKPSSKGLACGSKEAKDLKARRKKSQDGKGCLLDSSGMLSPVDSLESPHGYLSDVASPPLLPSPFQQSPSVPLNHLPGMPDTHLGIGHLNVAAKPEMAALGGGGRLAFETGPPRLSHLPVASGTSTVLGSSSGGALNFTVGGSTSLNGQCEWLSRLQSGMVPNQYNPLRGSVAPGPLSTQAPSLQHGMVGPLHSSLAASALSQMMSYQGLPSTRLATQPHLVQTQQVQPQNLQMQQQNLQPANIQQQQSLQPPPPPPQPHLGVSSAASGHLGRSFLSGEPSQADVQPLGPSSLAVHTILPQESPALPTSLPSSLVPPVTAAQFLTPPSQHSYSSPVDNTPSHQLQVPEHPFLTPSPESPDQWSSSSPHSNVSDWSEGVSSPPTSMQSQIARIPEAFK

In turn, `COc1cc(-c2cc(C(F)(F)F)cc3c2n(C)c(=O)n3CC(=O)Nc2ccc(OC(F)F)cc2)cc(F)c1OCc1nnc[nH]1` [SSTN-497, 2-(4-(4-((4H-1,2,4-triazol-3-yl)methoxy)-3-fluoro-5-methoxyphenyl)-3-methyl-2-oxo-6-(trifluoromethyl)-2,3-dihydro-1H-benzo[d]imidazol-1-yl)-N-(4-(difluoromethoxy)phenyl)acetamide hydrochloride] had an IC50 against Notch1 of 6.9 µM. The same compound gave an EC50 in assay [1] of 2.9 µM.
Take `COc1cc(-c2cc(C(F)(F)F)cc3c2n(C)c(=O)n3CC(=O)Nc2ccc(SC)cc2)cc(F)c1OCc1nnc[nH]1` [SSTN-498, 2-(4-(4-((4H-1,2,4-triazol-3-yl)methoxy)-3-fluoro-5-methoxyphenyl)-3-methyl-2-oxo-6-(trifluoromethyl)-2,3-dihydro-1H-benzo[d]imidazol-1-yl)-N-(4-(methylthio)phenyl)acetamide hydrochloride]: inhibition against Notch1 was half-maximal at 8.5 µM (IC50). The compound further had a concentration giving a half-maximal response (EC50) in assay [1] of 3 µM.
In the same order, the values of `COc1cc(-c2cc(C(F)(F)F)cc3c2n(C)c(=O)n3CC(=O)Nc2ccc(SC)cc2F)cc(F)c1OCc1nnc[nH]1` [SSTN-500, 2-(4-(4-((4H-1,2,4-triazol-3-yl)methoxy)-3-fluoro-5-methoxyphenyl)-3-methyl-2-oxo-6-(trifluoromethyl)-2,3-dihydro-1H-benzo[d]imidazol-1-yl)-N-(2-fluoro-4-(methylthio)phenyl)acetamide hydrochloride] are 7.4 µM and 2.7 µM.
As for `COc1cc(-c2cc(C(F)(F)F)cc3c2n(C)c(=O)n3CC(=O)Nc2cncc(C)c2)cc(F)c1OCc1nnc[nH]1` [SSTN-502, 2-(4-(4-((4H-1,2,4-triazol-3-yl)methoxy)-3-fluoro-5-methoxyphenyl)-3-methyl-2-oxo-6-(trifluoromethyl)-2,3-dihydro-1H-benzo[d]imidazol-1-yl)-N-(5-methylpyridin-3-yl)acetamide hydrochloride], at Notch1, the half-maximal inhibitory concentration (IC50) worked out at 12 µM. Further, the response in assay [1] was half-maximal at 8 µM (EC50).
For `COc1cc(-c2cc(C(F)(F)F)cc3c2n(C)c(=O)n3CC(=O)Nc2ccc(S(C)(=O)=O)cc2)cc(F)c1OCc1nnc[nH]1` [SSTN-503, 2-(4-(4-((4H-1,2,4-triazol-3-yl)methoxy)-3-fluoro-5-methoxyphenyl)-3-methyl-2-oxo-6-(trifluoromethyl)-2,3-dihydro-1H-benzo[d]imidazol-1-yl)-N-(4-(methylsulfonyl)phenyl)acetamide hydrochloride] the same measures were 12.5 µM and 8.4 µM.
For `COc1cc(-c2cc(C(F)(F)F)cc3c2n(C)c(=O)n3CC(=O)N(c2ccc(F)cc2)C(C)C)cc(F)c1OCc1nnc[nH]1` [SSTN-542, 2-(4-(4-((4H-1,2,4-triazol-3-yl)methoxy)-3-fluoro-5-methoxyphenyl)-3-methyl-2-oxo-6-(trifluoromethyl)-2,3-dihydro-1H-benzo[d]imidazol-1-yl)-N-(4-fluorophenyl)-N-isopropylacetamide] the same measures were 3.8 µM and 1.7 µM.
In the same order, the values of `COc1cc(-c2cc(C(F)(F)F)cc3c2n(C)c(=O)n3CC(=O)N(c2ccc(F)cc2)C2CC2)cc(F)c1OCc1nnc[nH]1` [SSTN-543, 2-(4-(4-((4H-1,2,4-triazol-3-yl)methoxy)-3-fluoro-5-methoxyphenyl)-3-methyl-2-oxo-6-(trifluoromethyl)-2,3-dihydro-1H-benzo[d]imidazol-1-yl)-N-cyclopropyl-N-(4-fluorophenyl)acetamide] are 4.7 µM and 2.9 µM.
`COc1cc(-c2cc(C(F)(F)F)cc3c2n(C)c(=O)n3CC(=O)Nc2cccc(-c3ccccc3)c2)cc(F)c1OCc1nnc[nH]1` [SSTN-546, 2-(4-(4-((4H-1,2,4-triazol-3-yl)methoxy)-3-fluoro-5-methoxyphenyl)-3-methyl-2-oxo-6-(trifluoromethyl)-2,3-dihydro-1H-benzo[d]imidazol-1-yl)-N-([1,1′-biphenyl]-3-yl)acetamide] showed a half-inhibitory concentration (IC50) against Notch1 of 4.2 µM. The EC50 in assay [1] was found to be 3.6 µM.
`COc1cc(-c2cc(C(F)(F)F)cc3c2n(C)c(=O)n3CC(=O)Nc2cccc(C3CC3)c2)cc(F)c1OCc1nnc[nH]1` [SSTN-547, 2-(4-(4-((4H-1,2,4-triazol-3-yl)methoxy)-3-fluoro-5-methoxyphenyl)-3-methyl-2-oxo-6-(trifluoromethyl)-2,3-dihydro-1H-benzo[d]imidazol-1-yl)-N-(3-cyclopropylphenyl)acetamide] registered a half-inhibitory concentration (IC50) against Notch1 of 5.9 µM. Also, the response in assay [1] was half-maximal at 1.7 µM (EC50).
For `COCc1cccc(NC(=O)Cn2c(=O)n(C)c3c(-c4cc(F)c(OCc5nnc[nH]5)c(OC)c4)cc(C(F)(F)F)cc32)c1` [SSTN-548, 2-(4-(4-((4H-1,2,4-triazol-3-yl)methoxy)-3-fluoro-5-methoxyphenyl)-3-methyl-2-oxo-6-(trifluoromethyl)-2,3-dihydro-1H-benzo[d]imidazol-1-yl)-N-(3-(methoxymethyl)phenyl)acetamide] the same measures were 8.7 µM and 2.3 µM.
In the same order, the values of `COc1cc(-c2cc(C(F)(F)F)cc3c2n(C)c(=O)n3CC(=O)Nc2cccc(C(C)(C)C)c2)cc(F)c1OCc1nnc[nH]1` [SSTN-555, 2-(4-(4-((4H-1,2,4-triazol-3-yl)methoxy)-3-fluoro-5-methoxyphenyl)-3-methyl-2-oxo-6-(trifluoromethyl)-2,3-dihydro-1H-benzo[d]imidazol-1-yl)-N-(3-(tert-butyl)phenyl)acetamide] are 4.1 µM and 1.7 µM.
In the same order, the values of `COc1cc(-c2cc(C(F)(F)F)cc3c2n(C)c(=O)n3CC(=O)Nc2cccc(N3CCOCC3)c2)cc(F)c1OCc1nnc[nH]1` [SSTN-558, 2-(4-(4-((4H-1,2,4-triazol-3-yl)methoxy)-3-fluoro-5-methoxyphenyl)-3-methyl-2-oxo-6-(trifluoromethyl)-2,3-dihydro-1H-benzo[d]imidazol-1-yl)-N-(3-morpholinophenyl)acetamide] are 9.4 µM and 4.7 µM.
For `COc1cc(-c2cc(C(F)(F)F)cc3c2n(C)c(=O)n3CC(=O)Nc2cccc(N3CCN(C)CC3)c2)cc(F)c1OCc1nnc[nH]1` [SSTN-559, 2-(4-(4-((4H-1,2,4-triazol-3-yl)methoxy)-3-fluoro-5-methoxyphenyl)-3-methyl-2-oxo-6-(trifluoromethyl)-2,3-dihydro-1H-benzo[d]imidazol-1-yl)-N-(3-(4-methylpiperazin-1-yl)phenyl)acetamide], half-maximal inhibition against Notch1 (IC50) required 19.9 µM. For the same compound, the 50% effective concentration (EC50) in assay [1] was 4.3 µM.
In the same order, the values of `COc1cc(-c2cc(C(F)(F)F)cc3c2n(C)c(=O)n3CC(=O)Nc2ccc(F)cc2)ccc1OCc1nnc[nH]1` [SSTN-598, 2-(4-(4-((4H-1,2,4-triazol-3-yl)methoxy)-3-methoxyphenyl)-3-methyl-2-oxo-6-(trifluoromethyl)-2,3-dihydro-1H-benzo[d]imidazol-1-yl)-N-(4-fluorophenyl)acetamide hydrochloride salt] are 6.4 µM and 11.6 µM.
`COc1cc(-c2cc(OC(F)(F)F)cc3c2n(C)c(=O)n3CC(=O)Nc2ccc(F)cc2)cc(F)c1OCc1nnc[nH]1` [SSTN-600, 2-(4-(4-((4H-1,2,4-triazol-3-yl)methoxy)-3-fluoro-5-methoxyphenyl)-3-methyl-2-oxo-6-(trifluoromethoxy)-2,3-dihydro-1H-benzo[d]imidazol-1-yl)-N-(4-fluorophenyl)acetamide hydrochloride salt]: the IC50 on Notch1 turned out to be 5.8 µM. In addition, in assay [1], the response was half-maximal at 6.6 µM (EC50).
In the same order, the values of `COc1cc(-c2cc(Cl)cc3c2n(C)c(=O)n3CC(=O)Nc2ccc(F)cc2)cc(F)c1OCc1nnc[nH]1` [SSTN-601, 2-(4-(4-((4H-1,2,4-triazol-3-yl)methoxy)-3-fluoro-5-methoxyphenyl)-6-chloro-3-methyl-2-oxo-2,3-dihydro-1H-benzo[d]imidazol-1-yl)-N-(4-fluorophenyl)acetamide] are 10.2 µM and 7.1 µM.
In the same order, the values of `COc1cc(-c2cc(C(F)(F)F)cc3c2n(C)c(=O)n3CC(=O)Nc2ccc(F)cc2)c(F)cc1OCc1nnc[nH]1` [SSTN-603, 2-(4-(4-((4H-1,2,4-triazol-3-yl)methoxy)-2-fluoro-5-methoxyphenyl)-3-methyl-2-oxo-6-(trifluoromethyl)-2,3-dihydro-1H-benzo[d]imidazol-1-yl)-N-(4-fluorophenyl)acetamide] are 7.4 µM and 3.8 µM.
For `COC(=O)c1cc(OCc2nnc[nH]2)c(OC)cc1-c1cc(C(F)(F)F)cc2c1n(C)c(=O)n2CC(=O)Nc1ccc(F)cc1` [SSTN-604, Methyl 5-((4H-1,2,4-triazol-3-yl)methoxy)-2-(1-(2-((4-fluorophenyl)amino)-2-oxoethyl)-3-methyl-2-oxo-6-(trifluoromethyl)-2,3-dihydro-1H-benzo[d]imidazol-4-yl)-4-methoxybenzoate hydrochloride salt] the same measures were 10.4 µM and 18.9 µM.

These data come from US20230183215A1, “Notch Inhibitors and Uses Thereof” (StemSynergy Therapeutics, Inc., priority 2020, published 2023).
